Test results published in ChEMBL document CHEMBL1649134, “Occurrence of efflux mechanism and cephalosporinase variant in a population of Enterobacter aerogenes and Klebsiella pneumoniae isolates producing extended-spectrum beta-lactamases” (2009).
In brackets after ≈: the same amount, converted by molar mass.

Columns and labels:
Assay type in all cases: functional
[1] = system: Klebsiella pneumoniae; experiment: Antimicrobial activity against multidrug resistant Klebsiella pneumoniae isolate 9 by broth dilution method in presence of 26.3 mg/L efflux pump inhibitor phenylalanine-arginine-beta-naphthylamide
[2] = system: Klebsiella aerogenes; experiment: Antimicrobial activity against multidrug resistant Enterobacter aerogenes isolate 12 by broth dilution method in presence of 26.3 mg/L efflux pump inhibitor phenylalanine-arginine-beta-naphthylamide
[3] = system: Klebsiella aerogenes; experiment: Antimicrobial activity against multidrug resistant Enterobacter aerogenes isolate 18 by broth dilution method in presence of 26.3 mg/L efflux pump inhibitor phenylalanine-arginine-beta-naphthylamide
[4] = system: Klebsiella aerogenes; experiment: Antimicrobial activity against multidrug resistant Enterobacter aerogenes isolate 20 by broth dilution method
[5] = system: Klebsiella pneumoniae; experiment: Antimicrobial activity against multidrug resistant Klebsiella pneumoniae isolate 11 by broth dilution method
[6] = system: Klebsiella aerogenes; experiment: Antimicrobial activity against multidrug resistant Enterobacter aerogenes isolate 16 by broth dilution method in presence of 26.3 mg/L efflux pump inhibitor phenylalanine-arginine-beta-naphthylamide
[7] = system: Klebsiella aerogenes; experiment: Antimicrobial activity against multidrug resistant Enterobacter aerogenes isolate 17 by broth dilution method
[8] = system: Klebsiella aerogenes; experiment: Antimicrobial activity against multidrug resistant Enterobacter aerogenes isolate 25 by broth dilution method in presence of 26.3 mg/L efflux pump inhibitor phenylalanine-arginine-beta-naphthylamide
[9] = system: Klebsiella pneumoniae; experiment: Antimicrobial activity against multidrug resistant Klebsiella pneumoniae isolate 1 by broth dilution method
[10] = system: Klebsiella aerogenes; experiment: Antimicrobial activity against multidrug resistant Enterobacter aerogenes isolate 17 by broth dilution method in presence of 26.3 mg/L efflux pump inhibitor phenylalanine-arginine-beta-naphthylamide
[11] = system: Klebsiella aerogenes; experiment: Antimicrobial activity against multidrug resistant Enterobacter aerogenes isolate 5 by broth dilution method
[12] = system: Klebsiella pneumoniae; experiment: Antimicrobial activity against multidrug resistant Klebsiella pneumoniae isolate 16 by broth dilution method in presence of 26.3 mg/L efflux pump inhibitor phenylalanine-arginine-beta-naphthylamide
[13] = system: Klebsiella pneumoniae; experiment: Antimicrobial activity against multidrug resistant Klebsiella pneumoniae isolate 5 by broth dilution method
[14] = system: Klebsiella aerogenes; experiment: Antimicrobial activity against multidrug resistant Enterobacter aerogenes isolate 24 by broth dilution method in presence of 26.3 mg/L efflux pump inhibitor phenylalanine-arginine-beta-naphthylamide
[15] = system: Klebsiella pneumoniae; experiment: Antimicrobial activity against multidrug resistant Klebsiella pneumoniae isolate 14 by broth dilution method
[16] = system: Klebsiella aerogenes; experiment: Antimicrobial activity against multidrug resistant Enterobacter aerogenes isolate 13 by broth dilution method in presence of 26.3 mg/L efflux pump inhibitor phenylalanine-arginine-beta-naphthylamide
[17] = system: Klebsiella aerogenes; experiment: Antimicrobial activity against multidrug resistant Enterobacter aerogenes isolate 23 by broth dilution method in presence of 26.3 mg/L efflux pump inhibitor phenylalanine-arginine-beta-naphthylamide
[18] = system: Klebsiella aerogenes; experiment: Antimicrobial activity against multidrug resistant Enterobacter aerogenes isolate 8 by broth dilution method in presence of 26.3 mg/L efflux pump inhibitor phenylalanine-arginine-beta-naphthylamide
[19] = system: Klebsiella aerogenes; experiment: Antimicrobial activity against multidrug resistant Enterobacter aerogenes isolate 18 by broth dilution method
[20] = system: Klebsiella pneumoniae; experiment: Antimicrobial activity against multidrug resistant Klebsiella pneumoniae isolate 11 by broth dilution method in presence of 26.3 mg/L efflux pump inhibitor phenylalanine-arginine-beta-naphthylamide
[21] = system: Klebsiella pneumoniae; experiment: Antimicrobial activity against multidrug resistant Klebsiella pneumoniae isolate 4 by broth dilution method in presence of 26.3 mg/L efflux pump inhibitor phenylalanine-arginine-beta-naphthylamide
[22] = system: Klebsiella aerogenes; experiment: Antimicrobial activity against multidrug resistant Enterobacter aerogenes isolate 7 by broth dilution method in presence of 26.3 mg/L efflux pump inhibitor phenylalanine-arginine-beta-naphthylamide
[23] = system: Klebsiella aerogenes; experiment: Antimicrobial activity against multidrug resistant Enterobacter aerogenes isolate 4 by broth dilution method
[24] = system: Klebsiella aerogenes; experiment: Antimicrobial activity against multidrug resistant Enterobacter aerogenes isolate 9 by broth dilution method in presence of 26.3 mg/L efflux pump inhibitor phenylalanine-arginine-beta-naphthylamide
[25] = system: Klebsiella pneumoniae; experiment: Antimicrobial activity against multidrug resistant Klebsiella pneumoniae isolate 15 by broth dilution method in presence of 26.3 mg/L efflux pump inhibitor phenylalanine-arginine-beta-naphthylamide
[26] = system: Klebsiella aerogenes; experiment: Antimicrobial activity against multidrug resistant Enterobacter aerogenes isolate 20 by broth dilution method in presence of 26.3 mg/L efflux pump inhibitor phenylalanine-arginine-beta-naphthylamide
[27] = system: Klebsiella aerogenes; experiment: Antimicrobial activity against multidrug resistant Enterobacter aerogenes isolate 19 by broth dilution method in presence of 26.3 mg/L efflux pump inhibitor phenylalanine-arginine-beta-naphthylamide
[28] = system: Klebsiella aerogenes; experiment: Antimicrobial activity against multidrug resistant Enterobacter aerogenes isolate 3 by broth dilution method in presence of 26.3 mg/L efflux pump inhibitor phenylalanine-arginine-beta-naphthylamide
[29] = system: Klebsiella pneumoniae; experiment: Antimicrobial activity against multidrug resistant Klebsiella pneumoniae isolate 14 by broth dilution method in presence of 26.3 mg/L efflux pump inhibitor phenylalanine-arginine-beta-naphthylamide
[30] = system: Klebsiella aerogenes; experiment: Antimicrobial activity against multidrug resistant Enterobacter aerogenes isolate 19 by broth dilution method
[31] = system: Klebsiella pneumoniae; experiment: Antimicrobial activity against multidrug resistant Klebsiella pneumoniae isolate 4 by broth dilution method
[32] = system: Klebsiella pneumoniae; experiment: Antimicrobial activity against multidrug resistant Klebsiella pneumoniae isolate 13 by broth dilution method in presence of 26.3 mg/L efflux pump inhibitor phenylalanine-arginine-beta-naphthylamide
[33] = system: Klebsiella pneumoniae; experiment: Antimicrobial activity against multidrug resistant Klebsiella pneumoniae isolate 15 by broth dilution method
[34] = system: Klebsiella aerogenes; experiment: Antimicrobial activity against multidrug resistant Enterobacter aerogenes isolate 12 by broth dilution method
[35] = system: Klebsiella pneumoniae; experiment: Antimicrobial activity against multidrug resistant Klebsiella pneumoniae isolate 12 by broth dilution method
[36] = system: Klebsiella aerogenes; experiment: Antimicrobial activity against multidrug resistant Enterobacter aerogenes isolate 4 by broth dilution method in presence of 26.3 mg/L efflux pump inhibitor phenylalanine-arginine-beta-naphthylamide
[37] = system: Klebsiella pneumoniae; experiment: Antimicrobial activity against multidrug resistant Klebsiella pneumoniae isolate 5 by broth dilution method in presence of 26.3 mg/L efflux pump inhibitor phenylalanine-arginine-beta-naphthylamide
[38] = system: Klebsiella aerogenes; experiment: Antimicrobial activity against multidrug resistant Enterobacter aerogenes isolate 11 by broth dilution method
[39] = system: Klebsiella pneumoniae; experiment: Antimicrobial activity against multidrug resistant Klebsiella pneumoniae isolate 8 by broth dilution method
[40] = system: Klebsiella aerogenes; experiment: Antimicrobial activity against multidrug resistant Enterobacter aerogenes isolate 11 by broth dilution method in presence of 26.3 mg/L efflux pump inhibitor phenylalanine-arginine-beta-naphthylamide
[41] = system: Klebsiella aerogenes; experiment: Antimicrobial activity against multidrug resistant Enterobacter aerogenes isolate 14 by broth dilution method in presence of 26.3 mg/L efflux pump inhibitor phenylalanine-arginine-beta-naphthylamide
[42] = system: Klebsiella pneumoniae; experiment: Antimicrobial activity against multidrug resistant Klebsiella pneumoniae isolate 8 by broth dilution method in presence of 26.3 mg/L efflux pump inhibitor phenylalanine-arginine-beta-naphthylamide
[43] = system: Klebsiella aerogenes; experiment: Antimicrobial activity against multidrug resistant Enterobacter aerogenes ATCC 15038 by broth dilution method in presence of 26.3 mg/L efflux pump inhibitor phenylalanine-arginine-beta-naphthylamide
[44] = system: Klebsiella pneumoniae; experiment: Antimicrobial activity against multidrug resistant Klebsiella pneumoniae isolate 9 by broth dilution method
[45] = system: Klebsiella aerogenes; experiment: Antimicrobial activity against multidrug resistant Enterobacter aerogenes isolate 25 by broth dilution method
[46] = system: Klebsiella pneumoniae; experiment: Antimicrobial activity against multidrug resistant Klebsiella pneumoniae isolate 16 by broth dilution method
[47] = system: Klebsiella aerogenes; experiment: Antimicrobial activity against multidrug resistant Enterobacter aerogenes isolate 23 by broth dilution method
[48] = system: Klebsiella aerogenes; experiment: Antimicrobial activity against multidrug resistant Enterobacter aerogenes isolate 8 by broth dilution method

## C[C@@H]1CN(c2c(F)c(N)c3c(=O)c(C(=O)O)cn(C4CC4)c3c2F)C[C@H](C)N1 [SPARFLOXACIN]
[1]
  MIC: ≤ 0.06 µg/mL
[2]
  MIC: 8 µg/mL
[3]
  MIC: 16 µg/mL
[4]
  MIC: 256 µg/mL (≈ 652 µM)
[5]
  MIC: 8 µg/mL (≈ 20.4 µM)
[6]
  MIC: 8 µg/mL
[7]
  MIC: 256 µg/mL (≈ 652 µM)
[8]
  MIC: 8 µg/mL
[9]
  MIC: 0.25 µg/mL (≈ 0.637 µM)
[10]
  MIC: 16 µg/mL
[11]
  MIC: 512 µg/mL (≈ 1300 µM)
[12]
  MIC: ≤ 0.06 µg/mL
[13]
  MIC: 0.125 µg/mL (≈ 0.319 µM)
[14]
  MIC: 16 µg/mL
[15]
  MIC: 2 µg/mL (≈ 5.1 µM)
[16]
  MIC: 8 µg/mL
[17]
  MIC: 4 µg/mL
[18]
  MIC: 4 µg/mL
[19]
  MIC: 128 µg/mL (≈ 326 µM)
[20]
  MIC: 2 µg/mL
[21]
  MIC: 2 µg/mL
[22]
  MIC: 4 µg/mL
[23]
  MIC: 128 µg/mL (≈ 326 µM)
[24]
  MIC: 8 µg/mL
[25]
  MIC: 8 µg/mL
[26]
  MIC: 16 µg/mL
[27]
  MIC: 16 µg/mL
[28]
  MIC: 8 µg/mL
[29]
  MIC: ≤ 0.06 µg/mL
[30]
  MIC: 128 µg/mL (≈ 326 µM)
[31]
  MIC: 8 µg/mL (≈ 20.4 µM)
[32]
  MIC: 0.5 µg/mL
[33]
  MIC: 32 µg/mL (≈ 81.5 µM)
[34]
  MIC: 128 µg/mL (≈ 326 µM)
[35]
  MIC: ≤ 0.06 µg/mL
[36]
  MIC: 8 µg/mL
[37]
  MIC: ≤ 0.06 µg/mL
[38]
  MIC: 128 µg/mL (≈ 326 µM)
[39]
  MIC: 0.125 µg/mL (≈ 0.319 µM)
[40]
  MIC: 4 µg/mL
[41]
  MIC: 8 µg/mL
[42]
  MIC: ≤ 0.06 µg/mL
[43]
  MIC: ≤ 0.06 µg/mL
[44]
  MIC: ≤ 0.06 µg/mL
[45]
  MIC: 128 µg/mL (≈ 326 µM)
[46]
  MIC: 0.125 µg/mL (≈ 0.319 µM)
[47]
  MIC: 128 µg/mL (≈ 326 µM)
[48]
  MIC: 64 µg/mL (≈ 163 µM)
